Data: patent US20060212961A1, “Rice transposon gene” (priority 2003, published 2006)

Legend:
[1] = tested on: pyl-stb seeds; experiment: Azacytidine treatment of pyl-stb seeds, appearance of mutable (pyl-v) individuals; assay type: in vivo, rice; settings: for Germination rate (%) / Mutable individual (%) / Individual with mutable or abnormal phenotype / Mutable individual / Normal individual: seeds macerated 24 hrs at 30° C.; for Individual with mutable or abnormal phenotype / Mutable individual / Normal individual: number of individuals
Experimental: pyl-stb seeds were macerated in 0.15, 0.3 or 0.45 mM azacytidine aqueous solution for 24 hrs at 30° C., washed them, left for germination and examined the expression of pyl-v.

[2] = tested on: indica rice (93-11); experiment: Azacytidine treatment of indica rice (93-11), release of nDart; assay type: in vivo; settings: 93-11 treated with azacytidine; no release under usual growth conditions
Experimental: Furthermore, indica rice (93-11) was treated with azacytidine and confirmed release of nDart.

## Nc1ncn([C@@H]2O[C@H](CO)[C@@H](O)[C@H]2O)c(=O)n1 [azaC, 5-azacytidine]
[1]; 0.15, 0.3 or 0.45 mM azacytidine aqueous solution, 24 hrs at 30° C.
  Frequency of the transposition of nDart: increased as the concentration of azacytidine increased
[1]; azaC 0.15 mM
  Germination rate (%): 99%
  Mutable individual (%): 60.6%
  Individual with mutable or abnormal phenotype: 17
  Mutable individual: 43
  Normal individual: 39
[1]; azaC 0.3 mM
  Germination rate (%): 92%
  Mutable individual (%): 69.6%
  Individual with mutable or abnormal phenotype: 27
  Mutable individual: 37
  Normal individual: 28
[1]; azaC 0.45 mM
  Germination rate (%): 95%
  Mutable individual (%): 73.7%
  Individual with mutable or abnormal phenotype: 36
  Mutable individual: 34
  Normal individual: 25
[1]; azacytidine treatment of pyl-stb seeds
  Change of pyl-stb to a pyl-v mutant: able to be changed to a pyl-v mutant
[2]
  Release of nDart: release was confirmed
